According to the NIST ThermoML archive (doi:10.1016/j.jct.2010.02.009):
Numbers after ± are expanded uncertainties.

Tests used:
[1] = refractive index (other wavelength) (dimensionless); xn = mol fraction of the nth substance listed; conditions: 101 kPa, Liquid, Wavelength=632.8 nm, Standard Abbe refractometry, x2 = 0
[2] = refractive index (other wavelength) (dimensionless); conditions: 101 kPa, Liquid, Wavelength=632.8 nm, Standard Abbe refractometry

CCCCCCCCC [nonane] + N#Cc1ccccc1
[1]
Conditions	refractive index
278.08 K	1.4111 ± 0.0008
279.19 K	1.4106 ± 0.0008
280.4 K	1.4101 ± 0.0008
281.48 K	1.4095 ± 0.0008
282.59 K	1.409 ± 0.0008
283.65 K	1.4085 ± 0.0008
284.91 K	1.4079 ± 0.0008

CCCCCCCCC [nonane]
[2]
Conditions	refractive index
278.08 K	1.4111 ± 0.0008
279.19 K	1.4106 ± 0.0008
280.4 K	1.4101 ± 0.0008
281.48 K	1.4095 ± 0.0008
282.59 K	1.409 ± 0.0008
283.65 K	1.4085 ± 0.0008
284.91 K	1.4079 ± 0.0008

N#Cc1ccccc1 [benzonitrile]
[2]
Conditions	refractive index
278.24 K	1.5324 ± 0.0008
279.25 K	1.5319 ± 0.0008
281.33 K	1.5308 ± 0.0008
282.96 K	1.5301 ± 0.0008
284.3 K	1.5294 ± 0.0008
285.43 K	1.5288 ± 0.0008
